Assay results from patent US7846473B2, “Irinotecan preparation” (Terumo Kabushiki Kaisha, priority 2004, dated 2010).

How the values were obtained:
Format in all cases: in vivo
[1] = system: Mouse fibrosarcoma (Meth A); experiment: Antitumor effect due to administration of a drug three times, Meth A; conditions: Meth A in BALB/c mouse; for Inhibition rate (%) / Tumor weight (g, mean ± S.D.): 21 days from transplantation
Procedure: Mouse fibrosarcoma (Meth A), 2.5×10^5 cells/mouse were transplanted subcutaneously in an inguinal region of a mouse (BALB/c, female, 7 weeks old, CLEA Japan, Inc.). […] Mice without injection of either agent were employed as a control group.
The tumors were also removed after 21 days from the transplantation and weight of the tumors was measured, to thereby calculate each tumor proliferation inhibition rate, I.R. (%) by the formula as shown in Test Example 6.

[2] = system: Mouse fibrosarcoma (Meth A); experiment: Antitumor effect due to administration of a drug once or twice, Meth A; conditions: Meth A in BALB/c mouse; for Inhibition rate (%) / Tumor weight (g, mean ± S.D.): 21 days from transplantation
Procedure: Mouse fibrosarcoma (Meth A), 2.5×10^5 cells/mouse were transplanted subcutaneously in an inguinal region of a mouse (BALB/c, female, 7 weeks old, CLEA Japan, Inc.). […] Mice without injection of any agent were employed as a control group.
The tumors were also removed after 21 days from the transplantation and weight of the tumors was measured, to thereby calculate tumor proliferation inhibition rate, I.R. (%) by the formula as shown in Test Example 6.

[3] = system: Human lung cancer cells (QG56); experiment: Antitumor effect, human lung cancer QG56 transplanted in mouse; conditions: QG56 in BALB/c nude mouse; for Inhibition rate (%) / Tumor weight (g, mean ± S.D.): 21 days after first injection
Procedure: Human lung cancer cells (QG56) with 2 to 3 mm square were transplanted subcutaneously in an inguinal region of a mouse (BALB/c nude, male, 6 weeks old, CLEA Japan, Inc.) with a needle for transplantation. […] Mice without injection of either agent were employed as a control group.
The estimated volume of each tumor and a body weight of the mouse were calculated 4, 8, 12, 16, and 21 days after the first injection. The tumors were also removed 21 days after the first injection and a weight of the tumors was measured, to thereby calculate each tumor proliferation inhibition rate, I.R. (%) by the formula as shown in Test Example 6. The results are shown in Table 16, FIG. 28, and FIG. 29.

[4] = Pharmacokinetics in cynomolgus monkey
Procedure: Providing 50 μL of blood plasma with 550 μL of an internal standard solution B (a methanol solution of internal standard substances) and employing centrifugal force, the supernatant was diluted with methanol 100-fold as a sample for the total CPT-11 concentration measurement. Meanwhile, Providing 50 μL of each blood plasma with 200 μL of an internal standard solution A (0.147 mol/L H3PO4 solution of internal standard substances), 200 μL thereof was subjected to a centrifugal separation (100,000×g, for 30 min, 10° C.). 100 μL in upper layer were separated and were employed solid-phase extraction, to obtain the eluent as samples for free CPT-11 (i.e., CPT-11 released from liposome, hereinafter referred as “liposome-released CPT-11”) concentration measurement, SN-38 concentration measurement, and SN-38G (SN-38 10-O-gluclonide) concentration measurement. The samples obtained were measured each concentration thereof with LC/MS/MS. FIGS. 8 to 11 show the results.

[5] = system: human prostatic cancer cells (PC-3); experiment: Antitumor effect, human prostatic cancer PC-3 implanted in mouse; conditions: PC-3 in BALB/c nude mouse; for Inhibition rate (%) / Tumor weight (g, mean ± S.D.): Day 22
Source text: 2.5×10^6 cells/mouse of human prostatic cancer cells (PC-3) were implanted subcutaneously in left inguinal region of the mouse (BALB/c nude, male, 6 weeks old, Charles River Japan, Inc.). After implanting tumors, a presumptive tumor volume calculated by ½·ab^2 (a represents a longitudinal diameter of a tumor and b represents a short axis diameter thereof). […] There were mice without injection of either agent as a control group.
A presumptive tumor volume and a body weight of a mouse were measured at Days 1, 5, 9, 12, 16, and 22.
After extracting tumors and measuring a weight thereof at Day 22, further, an inhibition rate of tumor growth I.R. (%) was calculated by the following formula. I.R. %=(1−average tumor weight in a treatment group/average tumor weight in a control group)×100

[6] = system: human colon cancer cells (HCT116); experiment: Antitumor effect, human colon cancer HCT116 implanted in mouse; conditions: HCT116 in BALB/c nude mouse; for Inhibition rate (%) / Tumor weight (g, mean ± S.D.): 21 days after injection
Procedure: 2×10^6 cells/mouse of human colon cancer cells (HCT116) were implanted subcutaneously in left inguinal region of the mouse (BALB/c nude, ♂, 6 weeks old, Charles River Japan, Inc.). After implanting tumors, a presumptive tumor volume was calculated by ½·ab^2 (a represents a longitudinal diameter of a tumor and b represents a short axis diameter thereof) achieved to about 90 mm^3 in a day (Day 0). […] There were mice without injection of either agent as a control group.
A presumptive tumor volume and a body weight of a mouse were measured after 5, 8, 12, 16, and 21 days from the injection. Extracting tumors 21 days after the injection and measuring a weight thereof, further, an inhibition rate of tumor growth I.R. (%) was calculated by the formula as shown in Test Example 6.

[7] = 50 mg/kg i.v., treatment on days 7, 9, 11
[8] = 50 mg/kg i.v., treatment on days 7, 11, 15
[9] = 100 mg/kg i.v., treatment on days 7, 9, 11
[10] = 100 mg/kg i.v., treatment on days 7, 11, 15
[11] = 12.5 mg/kg i.v., treatment on day 7
[12] = 12.5 mg/kg i.v., treatment on days 7, 11
[13] = 25 mg/kg i.v., treatment on day 7
[14] = 25 mg/kg i.v., treatment on day 11
[15] = 25 mg/kg i.v., treatment on days 7, 11
[16] = 50 mg/kg i.v., treatment on day 7
[17] = 50 mg/kg i.v., treatment on day 11
[18] = 50 mg/kg i.v., treatment on days 7, 11

With `CCc1c2c(nc3ccc(OC(=O)N4CCC(N5CCCCC5)CC4)cc13)-c1cc3c(c(=O)n1C2)COC(=O)[C@]3(O)CC` [(+)-(4S)-4,11-diethyl-4-hydroxy-9-[(4-piperidino-piperidino)carbonyloxy]-1H-pyrano[3′,4′:6,7]indolizino[1,2-b]quinolin-3,14(4H,12H)-dione] the “Inhibition rate (%)” value [1, 7] was 26.9%, the “Tumor weight (g, mean ± S.D.)” value [1, 7] was 1.47 ± 0.18 g and the “Inhibition rate (%)” value [1, 8] was 1.0%. The “Tumor weight (g, mean ± S.D.)” value [1, 8] was 1.99 ± 0.47 g, the “Inhibition rate (%)” value [1, 9] was 86.0% and the “Tumor weight (g, mean ± S.D.)” value [1, 9] was 0.28 ± 0.42 g. The “Inhibition rate (%)” value [1, 10] was 37.4%, the “Tumor weight (g, mean ± S.D.)” value [1, 10] was 1.26 ± 0.49 g and the “effect on body weight of the mouse” value ([1]; 50-100 mg/kg i.v. three times) was “didn't affect the body weight of the mouse”. For the same molecule, the “tumor proliferation compared to the control group” value ([1]; three administrations) was “significant tumor proliferation inhibitory effect”, the “Inhibition rate (%)” value [2, 11] was 20.2% and the “Tumor weight (g, mean ± S.D.)” value [2, 11] was 2.82 ± 0.51 g. For the same molecule, the “Inhibition rate (%)” value [2, 12] was 29.4%, the “Tumor weight (g, mean ± S.D.)” value [2, 12] was 2.49 ± 0.29 g and the “Inhibition rate (%)” value [2, 13] was 26.0%. For the same molecule, the “Tumor weight (g, mean ± S.D.)” value [2, 13] was 2.61 ± 0.40 g, the “Inhibition rate (%)” value [2, 14] was 32.1% and the “Tumor weight (g, mean ± S.D.)” value [2, 14] was 2.40 ± 0.74 g. For the same molecule, the “Inhibition rate (%)” value [2, 15] was 34.1%, the “Tumor weight (g, mean ± S.D.)” value [2, 15] was 2.33 ± 0.62 g and the “Inhibition rate (%)” value [2, 16] was 33.7%. For the same molecule, the “Tumor weight (g, mean ± S.D.)” value [2, 16] was 2.34 ± 0.17 g, the “Inhibition rate (%)” value [2, 17] was 44.0% and the “Tumor weight (g, mean ± S.D.)” value [2, 17] was 1.98 ± 0.45 g. For the same molecule, the “Inhibition rate (%)” value [2, 18] was 41.2%, the “Tumor weight (g, mean ± S.D.)” value [2, 18] was 2.08 ± 0.43 g and the “effect on body weight of the mouse” value ([2]; 12.5-50 mg/kg i.v. once or twice) was “didn't affect the body weight of the mouse”. The “tumor proliferation compared to the control group” value ([2]; one or two administrations) was “significant tumor proliferation inhibitory effect compared to the control group unless a part of the physiological saline solutions of irinotecan hydrochloride”, the “tumor proliferation compared to the control group” value [3] was “significant tumor proliferation inhibitory effect” and the “Inhibition rate (%)” value ([3]; 25 mg/kg i.v. days 1, 5, 9) was 35.5%. For the same molecule, the “Tumor weight (g, mean ± S.D.)” value ([3]; 25 mg/kg i.v. days 1, 5, 9) was 1.88 ± 0.43 g, the “Inhibition rate (%)” value ([3]; 50 mg/kg i.v. days 1, 5, 9) was 48.7% and the “Tumor weight (g, mean ± S.D.)” value ([3]; 50 mg/kg i.v. days 1, 5, 9) was 1.49 ± 0.51 g. For the same molecule, the “Inhibition rate (%)” value ([3]; 100 mg/kg i.v. days 1, 5, 9) was 67.2%, the “Tumor weight (g, mean ± S.D.)” value ([3]; 100 mg/kg i.v. days 1, 5, 9) was 0.95 ± 0.18 g and the “effect on body weight of the mouse” value ([3]; 25-100 mg/kg i.v. days 1, 5, 9) was “didn't affect the body weight of the mouse”. The “time of highest SN-38 concentration in blood plasma” value ([4]; 10 mg/kg i.v.) was “immediately after injection”, the “time of highest free (liposome-released) CPT-11 concentration in blood plasma” value ([4]; 10 mg/kg i.v.) was “immediately after injection” and the concentration at 1 h ([4]; male, plasma, iv, 10 mg/kg i.v. over 4 min, until 1 hour, lower limit of quantification, read-out: total CPT-11 concentration in blood plasma) was < 1000 ng/mL. The “tumor growth compared to the control group” value [5] was “significant suppressive effect of tumor growth”, the “Inhibition rate (%)” value ([5]; 25 mg/kg i.v. days 1, 5, 9) was 49.0% and the “Tumor weight (g, mean ± S.D.)” value ([5]; 25 mg/kg i.v. days 1, 5, 9) was 0.64 ± 0.25 g. For the same molecule, the “Inhibition rate (%)” value ([5]; 50 mg/kg i.v. days 1, 5, 9) was 48.0%, the “Tumor weight (g, mean ± S.D.)” value ([5]; 50 mg/kg i.v. days 1, 5, 9) was 0.66 ± 0.13 g and the “Inhibition rate (%)” value ([5]; 100 mg/kg i.v. days 1, 5, 9) was 62.3%. For the same molecule, the “Tumor weight (g, mean ± S.D.)” value ([5]; 100 mg/kg i.v. days 1, 5, 9) was 0.48 ± 0.20 g, the “influence on body weight of the mouse” value ([5]; 25-100 mg/kg i.v. days 1, 5, 9) was “did not influence the body weight of the mouse” and the “tumor growth compared to the control group” value [6] was “significant suppressive effect of tumor growth”. For the same molecule, the “Inhibition rate (%)” value ([6]; 18.75 mg/kg i.v. Days 1, 5, 9) was 39.0%, the “Tumor weight (g, mean ± S.D.)” value ([6]; 18.75 mg/kg i.v. Days 1, 5, 9) was 0.76 ± 0.06 g and the “Inhibition rate (%)” value ([6]; 37.5 mg/kg i.v. Days 1, 5, 9) was 43.4%. The “Tumor weight (g, mean ± S.D.)” value ([6]; 37.5 mg/kg i.v. Days 1, 5, 9) was 0.71 ± 0.08 g, the “Inhibition rate (%)” value ([6]; 75 mg/kg i.v. Days 1, 5, 9) was 57.4% and the “Tumor weight (g, mean ± S.D.)” value ([6]; 75 mg/kg i.v. Days 1, 5, 9) was 0.53 ± 0.14 g. The “influence on body weight of the mouse” value ([6]; 18.75-75 mg/kg i.v. Days 1, 5, 9) was “did not influence the body weight of the mouse”.
